This passage reports TGI and GI50 results from PubChem BioAssay (NCI).

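How tested: cells in 96-well plates exposed to compound for 48 hours at five concentrations. Here, GI50 denotes the concentration required for 50% inhibition of growth. At the TGI there is no net growth.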 Where only a bound is given, the exact number is not on record here.

Among the test systems are ACHN renal; MOLT-4 leukemia; NCI-H226 lung; RPMI-8226 leukemia; UACC-257 melanoma; SK-OV-3 ovarian; SW-620 colon; SN12C renal; SNB-19 CNS; HT29 colon.
What all share (experiment): growth of human tumour cells (NCI), 48 h

Take `COc1cc2cc[n+](C)c(Cc3ccc(Oc4cc(Cc5c6cc(OC)c(OC)cc6cc[n+]5C)ccc4OC)cc3)c2cc1OC`: the TGI in the assay with ACHN renal, with MOLT-4 leukemia, with NCI-H226 lung, in the assay on RPMI-8226 leukemia, in the assay on UACC-257 melanoma and in the assay on SK-OV-3 ovarian was above 100 µM throughout. The TGI in the assay with SW-620 colon, in the assay with SN12C renal, with SNB-19 CNS and with HT29 colon was above 100 µM throughout.
In the case of `CS(=O)(=O)Nc1ccc(NCc2cnc3ccc4[nH]cccc4c23)cc1`, the TGI is above 100 µM in the assay with ACHN renal; 33.6 µM with MOLT-4 leukemia; above 100 µM in the assay on NCI-H226 lung; 31 µM with RPMI-8226 leukemia; 51.9 µM in the assay on UACC-257 melanoma; above 100 µM with SK-OV-3 ovarian. For the same compound, the TGI was above 100 µM in the assay with SW-620 colon, 88.8 µM with SN12C renal, above 100 µM with SNB-19 CNS and above 100 µM in the assay on HT29 colon.
`CC12OC(C(=O)C13CCC3)C1C(=O)c3c(O)ccc(O)c3C(=O)C12` (stereo not given): the GI50 in the assay with ACHN renal was 0.715 µM; in the assay on MOLT-4 leukemia it was 0.123 µM; in the assay on NCI-H226 lung, above 100 µM; in the assay with RPMI-8226 leukemia, 0.336 µM; in the assay on UACC-257 melanoma it was 1.53 µM; in the assay on SK-OV-3 ovarian, 18.6 µM. Besides, the GI50 with SW-620 colon is 1.39 µM; in the assay with SN12C renal, 0.0256 µM; in the assay with SNB-19 CNS it was 14.7 µM; with HT29 colon, 0.897 µM. The TGI with ACHN renal was 2.01 µM; with NCI-H226 lung it was above 100 µM; with RPMI-8226 leukemia it was 3.11 µM; in the assay on UACC-257 melanoma, 7.81 µM; in the assay with SK-OV-3 ovarian it was 54.3 µM; with SW-620 colon, 3.88 µM. Further, the figures for the TGI in the assay on SN12C renal, in the assay with SNB-19 CNS and in the assay on HT29 colon were 0.0729 µM, above 50.5 µM and above 51.6 µM, respectively.
`O=C(NN1CCCCC1)c1cc2cc(CCl)ccc2oc1=O`: the TGI in the assay with ACHN renal was above 100 µM; in the assay on MOLT-4 leukemia, 65.5 µM; in the assay on NCI-H226 lung it was 45.3 µM; in the assay with RPMI-8226 leukemia, 59 µM; in the assay on UACC-257 melanoma, 59.1 µM; with SK-OV-3 ovarian, 42.6 µM. In addition, the TGI in the assay on SW-620 colon turned out to be 60.7 µM; in the assay on SN12C renal, 38.7 µM; in the assay with SNB-19 CNS, 65.2 µM; in the assay with HT29 colon it was 33 µM.
In the case of `CC(C)C(=O)CC(c1ccc(Br)cc1)N1N=C(C(C)C)CC1c1ccc(Br)cc1` (stereo not given), the TGI in the assay on ACHN renal, with MOLT-4 leukemia, with NCI-H226 lung, with SK-OV-3 ovarian, in the assay with SW-620 colon and in the assay on SN12C renal was above 100 µM throughout. Further, the TGI in the assay with SNB-19 CNS and in the assay on HT29 colon was above 100 µM each time.
In the case of `CC(C)(C)COS(=O)OCC(C)(C)C`, the TGI with ACHN renal, in the assay on MOLT-4 leukemia, in the assay on NCI-H226 lung, in the assay with RPMI-8226 leukemia, with UACC-257 melanoma and in the assay on SK-OV-3 ovarian was above 100 µM in each case. The TGI in the assay with SW-620 colon, in the assay with SN12C renal, in the assay with SNB-19 CNS and in the assay on HT29 colon was above 100 µM each time.
As for `Fc1c(F)c(F)c(CSc2nc3ccccc3[nH]2)c(F)c1F`, the TGI in the assay with ACHN renal, in the assay with MOLT-4 leukemia, in the assay on NCI-H226 lung, in the assay with RPMI-8226 leukemia, with UACC-257 melanoma and with SK-OV-3 ovarian was above 100 µM in each case. Also, the TGI with SW-620 colon, in the assay on SN12C renal, with SNB-19 CNS and in the assay on HT29 colon was above 100 µM each time.
As for `COc1cc(S(=O)(=O)Nc2ccc(-c3csc(/N=C\c4cccc(Oc5ccccc5)c4)n3)cc2)ccc1Cl`, the TGI was 71.8 µM in the assay on ACHN renal; above 100 µM in the assay on MOLT-4 leukemia; above 100 µM with NCI-H226 lung; 75.6 µM with RPMI-8226 leukemia; above 100 µM with SW-620 colon; 96.7 µM in the assay with SN12C renal. For the same compound, the TGI in the assay with SNB-19 CNS and in the assay with HT29 colon was above 100 µM each time.
For `CC(CCCCNC(=O)OC(C)(C)C)NC(=O)NC(C)CCCCNC(=O)OC(C)(C)C` (stereo not given), the TGI in the assay on ACHN renal, in the assay on MOLT-4 leukemia, with NCI-H226 lung, in the assay with UACC-257 melanoma, in the assay on SK-OV-3 ovarian and in the assay with SW-620 colon was above 100 µM in each case. The TGI with SN12C renal, in the assay with SNB-19 CNS and with HT29 colon was above 100 µM in each case.
Regarding `C=C(CN(C)C)C(=O)c1ccccc1Cl`, the TGI was 32.5 µM in the assay with ACHN renal; above 75.2 µM in the assay on MOLT-4 leukemia; above 100 µM with NCI-H226 lung; 82.3 µM in the assay with RPMI-8226 leukemia; 37.5 µM in the assay with UACC-257 melanoma; above 100 µM in the assay with SK-OV-3 ovarian. In addition, the TGI in the assay on SW-620 colon was 27.7 µM; in the assay on SN12C renal, 42.3 µM; with SNB-19 CNS, above 100 µM; in the assay on HT29 colon, 34.4 µM.
For `CCC1=C(CC2NCCc3cc(OC)c(OC)cc32)CC2c3ccccc3CCN2C1` (stereo not given), the TGI was above 100 µM in the assay with ACHN renal; 43.9 µM in the assay with MOLT-4 leukemia; 73.6 µM with NCI-H226 lung; 30.4 µM in the assay on RPMI-8226 leukemia; 32 µM with UACC-257 melanoma; above 100 µM in the assay on SK-OV-3 ovarian. Besides, the TGI was 37.3 µM in the assay on SW-620 colon, above 100 µM with SN12C renal, above 100 µM with SNB-19 CNS and 20.6 µM in the assay with HT29 colon.
`OC1CCSc2ccccc21` (stereo not given): the TGI in the assay with ACHN renal, with MOLT-4 leukemia, in the assay on NCI-H226 lung, in the assay on RPMI-8226 leukemia, in the assay on SK-OV-3 ovarian and with SW-620 colon was above 100 µM each time. Moreover, the TGI in the assay with SN12C renal, in the assay on SNB-19 CNS and in the assay on HT29 colon was above 100 µM throughout.
For `Cc1c2ccccc2cc2cccc[n+]12`, the TGI in the assay with ACHN renal is above 100 µM; in the assay with MOLT-4 leukemia, above 100 µM; in the assay with RPMI-8226 leukemia, above 100 µM; in the assay with UACC-257 melanoma, 43.3 µM; with SW-620 colon it was above 100 µM; with SN12C renal, above 100 µM. The TGI with SNB-19 CNS and in the assay with HT29 colon was above 100 µM throughout.
For `CN(CCCNC(=O)c1nn(-c2ccccc2)c2c1Cc1ccccc1-2)CCCNC(=O)c1nn(-c2ccccc2)c2c1Cc1ccccc1-2`, the TGI in the assay with ACHN renal came to 3.12 µM; in the assay with MOLT-4 leukemia, 2.95 µM; in the assay on RPMI-8226 leukemia, 4.22 µM; in the assay on UACC-257 melanoma, 3.28 µM; in the assay with SK-OV-3 ovarian it was 3.23 µM; with SW-620 colon, 2.63 µM. Moreover, the TGI in the assay on SN12C renal came out at 3.2 µM; with SNB-19 CNS it was 3.07 µM; in the assay on HT29 colon, 3.42 µM.
Take `Oc1ccc(Cl)cc1C1=Nn2c(COc3ccc4c(c3)CCCC4)nnc2SC1`: the TGI in the assay on ACHN renal stood at 49.7 µM; in the assay with MOLT-4 leukemia it was 43.8 µM; in the assay with RPMI-8226 leukemia it was 19.3 µM; with UACC-257 melanoma, 35.6 µM; in the assay on SK-OV-3 ovarian, 42.4 µM; in the assay with SW-620 colon it was 33 µM. Besides, the TGI in the assay with SN12C renal was 19.9 µM; with SNB-19 CNS, 50.5 µM.
Regarding `Nc1csc(-c2scc3c2OCCO3)c1N`, the TGI was above 100 µM with ACHN renal; above 100 µM with MOLT-4 leukemia; 42.9 µM in the assay on NCI-H226 lung; above 100 µM in the assay with RPMI-8226 leukemia; 54.2 µM in the assay on UACC-257 melanoma; 87.9 µM with SW-620 colon. Further, the TGI is 37.4 µM in the assay on SN12C renal, above 100 µM in the assay on SNB-19 CNS and 52.6 µM with HT29 colon.
With `CN(CCN1C(=O)c2cccc3cccc(c23)C1=O)CCN1C(=O)c2cccc3cccc(c23)C1=O`, the TGI in the assay on ACHN renal is 20.7 µM; in the assay with MOLT-4 leukemia it was above 100 µM; in the assay with NCI-H226 lung it was 75.2 µM; with UACC-257 melanoma it was above 100 µM; in the assay on SK-OV-3 ovarian, 16.6 µM; in the assay on SN12C renal, above 100 µM. Besides, the values for the TGI in the assay with SNB-19 CNS and with HT29 colon were 16.8 µM and above 100 µM, respectively.
Regarding `Clc1cccc(/C=c2\nc(-c3ccccc3)n3c2nc2ccccc23)c1`, the TGI with MOLT-4 leukemia, in the assay on NCI-H226 lung, with RPMI-8226 leukemia, in the assay with UACC-257 melanoma, in the assay on SK-OV-3 ovarian and in the assay with SW-620 colon was above 100 µM throughout. Moreover, the TGI in the assay with SN12C renal, in the assay on SNB-19 CNS and in the assay with HT29 colon was above 100 µM in each case.
For `CS(=O)(=O)Nc1cccc(-c2ccc3ncnc(Nc4cncc(Cl)c4)c3c2)c1`, the GI50 is 1.11 µM in the assay with ACHN renal; 2.38 µM in the assay on MOLT-4 leukemia; 2.21 µM in the assay with NCI-H226 lung; 2.14 µM with RPMI-8226 leukemia; 2.08 µM in the assay on UACC-257 melanoma; 1.34 µM in the assay with SK-OV-3 ovarian. In addition, the GI50 in the assay with SN12C renal was 2.63 µM; in the assay on SNB-19 CNS, 3.84 µM; with HT29 colon it was 1.85 µM. Further, the TGI was above 100 µM with ACHN renal; 7.61 µM with MOLT-4 leukemia; 8.23 µM with NCI-H226 lung; 6.77 µM in the assay on RPMI-8226 leukemia; 4.82 µM in the assay on UACC-257 melanoma; 4.99 µM in the assay on SK-OV-3 ovarian. The TGI is above 100 µM in the assay on SN12C renal, above 100 µM with SNB-19 CNS and 4.65 µM with HT29 colon.
With `O=S(C(c1ccccc1)=P(c1ccccc1)(c1ccccc1)c1ccccc1)c1ccc(Cl)cc1` (stereo not given), the TGI with ACHN renal was 60 µM; with MOLT-4 leukemia, above 100 µM; in the assay on NCI-H226 lung, above 100 µM; in the assay on RPMI-8226 leukemia it was above 100 µM; in the assay with UACC-257 melanoma, above 100 µM; with SK-OV-3 ovarian it was 50.6 µM. Moreover, the TGI in the assay with SW-620 colon and in the assay on HT29 colon was above 100 µM throughout.
